According to US20170290336A1, “Isolated Bacterial Strain of the Genus Burkholderia and Pesticidal Metabolites Therefrom” (Marrone Bio Innovations, Inc., priority 2010, published 2017):

Legend:
[1] = tested on: green peach aphid (Myzus persicae); test: Sucking insect test in vivo on mustard plants; details: positive control (Avid) sprayed; 10 aphids at Day 0
Method: The in vivo efficacy of the filtered whole cell broth is tested in a plant assay with mustard plants and green peach aphid (Myzus persicae) as the test insect. Approximately one-month-old Florida Broadleaf mustard (Brassica sp.) plants are sprayed with two different concentrations (1× and 0.5×) of the filter sterilized whole cell broth of Burkholderia sp. using a Paasche airbrush. Water and a commercial product of avermectin (Avid) are used as negative and positive controls, respectively. The plants are allowed to dry on the benchtop, after which they are placed in a 6-cup plastic container with a lid with airholes. Ten aphids at various developmental stages are placed on each test plant, and the plants are incubated under growth lamps for 7 days at 25° C. Daily evaluations for the number of aphids on each plant (summarized in table Table 8 below) are made and recorded in a notebook.

B. cepacia isolates = details: 366 B. cepacia isolates; cited from earlier work
Burkholderia A396 = test: Antibiotic susceptibility, antibiotic disks on Muller-Hinton medium; type: cell-based, Burkholderia sp. A396; details: 72-hour incubation at 25° C.
Method: Antibiotic susceptibility of Burkholderia A396 is tested using antibiotic disks on Muller-Hinton medium as described in PML Microbiological's technical data sheet #535.

B. cepacia complex = details: 2,621 strains in B. cepacia complex from cystic fibrosis patients; cited from earlier work
[2] = tested on: barnyard grass (Echinochloa crus-galli) seedlings; test: Herbicidal laboratory assay, 96-well plate; type: in vivo; details: after five days; for Grass seedlings (% Mortality): 10 μg/mL concentration per well
Method: The herbicidal activity of the active compound FR90128 (MW 540) is tested in a laboratory assay using one-week old barnyard grass (Echinochloa crus-galli) seedlings in a 96-well plate platform. One grass seedling was placed in each of the wells containing 99 microliters of DI water. One microliter aliquot of the pure compound in ethanol (10 mg/mL) is added into each well, and the plate is sealed with a lid. One microliter of ethanol in 99 microliters of water is used as a negative control. The treatments were done in eight replicates, and the sealed plate is incubated in a greenhouse under artificial lights (12 hr light/dark cycle). After five days, the results are read.
(§1) The herbicidal activity of templamide A, B, FR901465 and FR90128 are tested in a laboratory assay using one-week old barnyard grass (Echinochloa crus-galli) and lettuce (Lactuca sativa L.) seedlings in a 96-well plate platform. One seedling is placed in each of the wells containing 99 microliters of DI water. Into each well, a one microliter aliquot of the pure compound in ethanol (10 mg/mL) is added, and the plate is sealed with a lid. One microliter of ethanol in 99 microliters of water is used as a negative control. The treatments are done in eight replicates, and the sealed plate is incubated in a greenhouse under artificial lights (12 hr light/dark cycle). After five days, the results are read. […] The herbicidal activity of templamide A against lettuce seedlings is slightly lower than for the grass. On the other hand, templamide B provides a better (100%) control of lettuce seedlings (used as a model system for broadleaf weeds) than templamide A (Table 11).

[3] = tested on: 1st instar Beet Army Worm (Spodoptera exigua); test: 96-well diet overlay assay; type: in vivo; details: 10 μg/mL concentration per well, 100 μl on diet, 6 days at 26° C.; for mortality at 10 µg/mL: Spodoptera exigua, 144 h
Method: The insecticidal activity of templamide A, B, FR901465 and FR90128 are tested in a laboratory assay using a 96-well diet overlay assay with ^1st instar Beet Armyworm larvae using microtiter plates with 200 μl of solid, artificial Beet Armyworm diet in each well. One hundred (100) μl of each test sample is pipetted on the top of the diet (one sample in each well), and the sample is let dry under flowing air until the surface is dry. Each sample was tested in six replicates, and water and a commercial Bt (B. thuringiensis) product are used as negative and positive controls, respectively. One first instar larvae of the test insect (Beet armyworm—Spodoptera exiqua) was placed in each well, and the plate was covered with plastic cover with airholes. The plates with insects were incubated at 26° C. for 6 days with daily mortality evaluations. Based on the results presented in Table 12, templamide A and B results in 40% and 80% mortality, respectively.

Botrytis cinerea = test: In vitro PDA plate assay, filter paper disks; type: cell-based; details: 5 days
Method: (§2) Fungicidal activity of FR90128 (MW 540) against three plant pathogenic fungi (Botrytis cinerea, Phytophtora sp., Monilinia fructicola) is tested in an in vitro PDA (potato dextrose agar) plate assay. Plates are inoculated with the fungus using a plug method. After the fungus had established and started to grow on the growth medium, eight sterile filter paper disks are placed on each plate about 1 cm from the edge in a circle. Ten microliters of ethanol solution containing 20, 15, 10, 7.5, 5, 2.5 1.25 mg FR90128/mL is added into filter paper disks, and the solution is left to evaporate. One disk imbedded with 10 μL of pure ethanol is used as a negative control. The assay is done with three replicates. Plates are incubated at room temperature for 5 days, after which the fungicidal activity is recorded by measuring the inhibition zone around each filter paper disk corresponding to different concentrations of FR90128.

Monilinia fructicola = test: In vitro PDA plate assay, filter paper disks; type: cell-based; details: 10 μL of 1.25-20 mg/mL on disks; 5 days
Method: as §2

Phytophtora sp. = test: In vitro PDA plate assay, filter paper disks; type: cell-based; details: 5 days
Method: as §2

[4] = tested on: lettuce (Lactuca sativa L.) seedlings; test: Herbicidal laboratory assay, 96-well plate; type: in vivo; details: 10 μg/mL concentration per well, after five days
Method: as §1

lettuce = test: 96 well plate lettuce seeding assay; type: in vivo; details: bioassay-guided isolation
Method: The culture broth derived from the 10-L fermentation Burkholderia (A396) in Hy soy growth medium is extracted with Amberlite XAD-7 resin (Asolkar et al., 2006) by shaking the cell suspension with resin at 225 rpm for two hours at room temperature. The resin and cell mass are collected by filtration through cheesecloth and washed with DI water to remove salts. The resin, cell mass, and cheesecloth are then soaked for 2 h in acetone after which the acetone is filtered and dried under vacuum using rotary evaporator to give the crude extract. The crude extract is then fractionated by using reversed-phase C18 vacuum liquid chromatography (H2O/CH3OH; gradient […] to 0:100%) to give 10 fractions. These fractions are then concentrated to dryness using rotary evaporator and the resulting dry residues are screened for biological activity using 96 well plate lettuce seeding assay. The active fractions are then subjected to reversed phase HPLC (Spectra System P4000 (Thermo Scientific) to give pure compounds, which are then screened in above mentioned bioassays to locate/identify the active compounds. To confirm the identity of the compound, additional spectroscopic data such as LC/MS and NMR is recorded.

[5] = 10 μL of 1.25-20 mg/mL on disks

## CC[C@H](C)[C@H]1O[C@]2(C=C[C@@H]1C)C[C@@H]1C[C@@H](C/C=C(\C)[C@@H](O[C@H]3C[C@H](OC)[C@@H](O[C@H]4C[C@H](OC)[C@@H](O)[C@H](C)O4)[C@H](C)O3)[C@@H](C)/C=C/C=C3\CO[C@@H]4[C@H](O)C(C)=C[C@@H](C(=O)O1)[C@]34O)O2 [Avermectin]
[1]
  # live aphids Day 2: 0
  # live aphids Day 4: 0
  # live aphids Day 7: 0

## CO/N=C(\C(=O)N[C@@H]1C(=O)N2C(C(=O)O)=C(COC(N)=O)CS[C@H]12)c1ccco1 [Cefuroxime]
B. cepacia isolates
  resistance of isolates (in words): most of them are resistant

## O=C(N[C@H](CO)[C@H](O)c1ccc([N+](=O)[O-])cc1)C(Cl)Cl [Chloramphenicol]
Burkholderia A396
  Susceptibility of Burkholderia A396 (in words): susceptible
B. cepacia complex
  strains resistant: 85%
  strains susceptible: 15%
B. cepacia isolates
  resistance of isolates (in words): most of them are resistant

## O=C(O)c1cn(C2CC2)c2cc(N3CCNCC3)c(F)cc2c1=O [Ciprofloxacin]
Burkholderia A396
  Susceptibility of Burkholderia A396 (in words): susceptible
B. cepacia complex
  strains susceptible: 5%
B. cepacia isolates
  resistance of isolates (in words): most of them are resistant

## C/C=C1\NC(=O)C2CSSCC/C=C/C(CC(=O)NC(C(C)C)C(=O)N2)OC(=O)C(C(C)C)NC1=O (centres unmarked) [FR90128]
[2]; 1 microliter of 10 mg/mL in ethanol added to 99 microliters water, all eight wells
  state of grass seedlings (in words): dead with no green tissue left
[3]
  mortality at 10 µg/mL: 90%
Botrytis cinerea; [5]
  effect on hyphal growth of Botrytis (in words): effective in controlling the hyphal growth
Botrytis cinerea; 10 μL per filter paper disk
  threshold concentration for inhibition, Botrytis: 10 mg/mL
Monilinia fructicola
  effect on the growth of Monilinia (in words): no effect
Phytophtora sp.; [5]
  effect on hyphal growth of Phytophtora (in words): effective in controlling the hyphal growth
Phytophtora sp.; 10 μL per filter paper disk
  threshold concentration for inhibition, Phytophtora: 1.25 mg/mL

## CCC(=O)OC(C)/C=C\C(=O)NC1CC(C)C(C/C=C(C)/C=C/C2OC(C)(O)C(O)C3(CO3)C2O)OC1C (centres unmarked) [FR901465]
[2]
  Grass seedlings (% Mortality): 88%
[4]
  Lettuce seedlings (% Mortality): 100%
[3]
  (% Mortality): 50%

## C[C@@H](O)[C@H]1C(=O)N2C(C(=O)O)=C(SCCN=CN)C[C@H]12 [Imipenem]
Burkholderia A396
  Susceptibility of Burkholderia A396 (in words): susceptible
B. cepacia complex
  strains susceptible: 7%
B. cepacia isolates
  resistance of isolates (in words): most of them are resistant

## NC[C@H]1O[C@H](O[C@H]2[C@H](O)[C@@H](O[C@H]3O[C@H](CO)[C@@H](O)[C@H](N)[C@H]3O)[C@H](N)C[C@@H]2N)[C@H](O)[C@@H](O)[C@@H]1O [Kanamycin]
Burkholderia A396
  Susceptibility of Burkholderia A396 (in words): susceptible

## CCN1CCN(C(=O)N[C@@H](C(=O)N[C@@H]2C(=O)N3[C@@H]2SC(C)(C)[C@@H]3C(=O)O)c2ccccc2)C(=O)C1=O [Piperacillin]
Burkholderia A396
  Susceptibility of Burkholderia A396 (in words): susceptible

## CCC(=O)OC(C)/C=C\C(=O)NC1CC(C)C(C/C=C(C)/C=C/C2OC(C)(O)C(O)C(O)(CO)C2O)OC1C (centres unmarked) [Templamide A]
[3]
  mortality at 10 µg/mL: 40%

## CCC(=O)OC(C)/C=C\C(=O)NC1CC(C)C(C/C=C(C)/C=C/C2OC(C)(O)C(O)C3(CO3)C2O)OC1C (centres unmarked) [Templamide B]
[2]
  Grass seedlings (% Mortality): 0%
[4]
  Lettuce seedlings (% Mortality): 75%
[4]; listed as templamide B
  Lettuce seedlings (% Mortality): 100%
[3]
  (% Mortality): 80%

## CN(C)[C@@H]1C(O)=C(C(N)=O)C(=O)[C@@]2(O)C(O)=C3C(=O)c4c(O)cccc4[C@@](C)(O)[C@H]3C[C@@H]12 [Tetracycline]
B. cepacia isolates
  resistance of isolates (in words): most of them are resistant

## Cc1cc(NS(=O)(=O)c2ccc(N)cc2)no1 [sulphametoxacole]
B. cepacia isolates
  resistance of isolates (in words): most of them are resistant

## COC(=O)c1nc(CC(C)C)oc1-c1c[nH]c2ccccc12 [templazole A]
lettuce
  herbicidal activity of pure compound (in words): active

## templazole B
lettuce
  herbicidal activity of pure compound (in words): herbicidally active
